Values quoted from earlier work as cited in paper PMC9963398, “Discovery of New Quinolone-Based Diarylamides as Potent B-RAF^V600E/C-RAF Kinase Inhibitors Endowed with Promising In Vitro Anticancer Activity” (International Journal of Molecular Sciences, 2023).

Experiments:
MCF7 = tested on: MCF7; design: method as in PMID 32745753; settings: MCF7, Breast cancer; cited from earlier work
SW-620 = tested on: SW-620; design: method as in PMID 32745753; settings: SW-620, Colon cancer; cited from earlier work
HCT-116 = tested on: HCT-116; design: method as in PMID 32745753; settings: HCT-116, Colon cancer; cited from earlier work
NCI-H460 = tested on: NCI-H460; design: method as in PMID 32745753; settings: NCI-H460, NSCL cancer; cited from earlier work
SF-295 = tested on: SF-295; design: method as in PMID 32745753; settings: SF-295, CNS cancer; cited from earlier work
MDA-MB-231/ATCC = settings: Breast cancer; cited from earlier work
LOX IMVI = tested on: LOX IMVI; design: method as in PMID 32745753; settings: Melanoma; cited from earlier work
TK-10 = tested on: TK-10; design: method as in PMID 32745753; settings: TK-10, Renal cancer; cited from earlier work
OVCAR-5 = tested on: OVCAR-5; design: method as in PMID 32745753; settings: OVCAR-5, Ovarian cancer; cited from earlier work
SF-539 = tested on: SF-539; design: method as in PMID 32745753; settings: SF-539, CNS cancer; cited from earlier work
RXF 393 = tested on: RXF 393; design: method as in PMID 32745753; settings: RXF 393, Renal cancer; cited from earlier work
U251 = tested on: U251; design: method as in PMID 32745753; settings: U251, CNS cancer; cited from earlier work
SK-MEL-28 = tested on: SK-MEL-28; design: method as in PMID 32745753; settings: SK-MEL-28, Melanoma; cited from earlier work
MDA-MB-435 = tested on: MDA-MB-435; design: method as in PMID 32745753; settings: MDA-MB-435, Melanoma; cited from earlier work
PC-3 = settings: PC-3, Prostate cancer; cited from earlier work
KM12 = tested on: KM12; design: method as in PMID 32745753; settings: KM12, Colon cancer; cited from earlier work
ACHN = tested on: ACHN; design: method as in PMID 32745753; settings: Renal cancer; cited from earlier work
IGROV1 = tested on: IGROV1; design: method as in PMID 32745753; settings: IGROV1, Ovarian cancer; cited from earlier work
HCT-15 = tested on: HCT-15; design: method as in PMID 32745753; settings: HCT-15, Colon cancer; cited from earlier work
CAKI-1 = tested on: CAKI-1; design: method as in PMID 32745753; settings: CAKI-1, Renal cancer; cited from earlier work
MOLT-4 = tested on: MOLT-4; design: method as in PMID 32745753; settings: MOLT-4, Leukemia; cited from earlier work
SNB-19 = tested on: SNB-19; design: method as in PMID 32745753; settings: SNB-19, CNS cancer; cited from earlier work
CCRF-CEM = tested on: CCRF-CEM; design: method as in PMID 32745753; settings: Leukemia; cited from earlier work
NCI-H322M = tested on: NCI-H322M; design: method as in PMID 32745753; settings: NSCL cancer; cited from earlier work
HOP-62 = tested on: HOP-62; design: method as in PMID 32745753; settings: HOP-62, NSCL cancer; cited from earlier work
RPMI-8226 = tested on: RPMI-8226; design: method as in PMID 32745753; settings: RPMI-8226, Leukemia; cited from earlier work
NCI/ADR-RES = tested on: NCI/ADR-RES; design: method as in PMID 32745753; settings: Ovarian cancer; cited from earlier work
NCI-H23 = tested on: NCI-H23; design: method as in PMID 32745753; settings: NCI-H23, NSCL cancer; cited from earlier work
SK-OV-3 = tested on: SK-OV-3; design: method as in PMID 32745753; settings: SK-OV-3, Ovarian cancer; cited from earlier work
A498 = tested on: A498; design: method as in PMID 32745753; settings: A498, Renal cancer; cited from earlier work
M14 = tested on: M14; design: method as in PMID 32745753; settings: M14, Melanoma; cited from earlier work
UACC-257 = tested on: UACC-257; design: method as in PMID 32745753; settings: UACC-257, Melanoma; cited from earlier work
T-47D = tested on: T-47D; design: method as in PMID 32745753; settings: Breast cancer; cited from earlier work
OVCAR-4 = tested on: OVCAR-4; design: method as in PMID 32745753; settings: OVCAR-4, Ovarian cancer; cited from earlier work
786-0 = tested on: 786-0; design: method as in PMID 32745753; settings: 786-0, Renal cancer; cited from earlier work
HL-60(TB) = tested on: HL-60(TB); design: method as in PMID 32745753; settings: Leukemia; cited from earlier work
HS 578T = tested on: HS 578T; design: method as in PMID 32745753; settings: Breast cancer; cited from earlier work

Compound: CNC(=O)c1cc(Oc2ccc(NC(=O)Nc3ccc(Cl)c(C(F)(F)F)c3)cc2)ccn1 [Sorafenib]
- GI50 (MCF7): 2800 nM
- GI50 (SW-620): 2800 nM
- GI50 (HCT-116): 1700 nM
- GI50 (NCI-H460): 2300 nM
- GI50 (SF-295): 1600 nM
- GI50 (MDA-MB-231/ATCC): 1300 nM
- GI50 (LOX IMVI): 1600 nM
- GI50 (TK-10): 4400 nM
- GI50 (OVCAR-5): 2900 nM
- GI50 (SF-539): 1600 nM
- GI50 (RXF 393): 3400 nM
- GI50 (U251): 2100 nM
- GI50 (SK-MEL-28): 2600 nM
- GI50 (MDA-MB-435): 1800 nM
- GI50 (PC-3): 2000 nM
- GI50 (KM12): 1600 nM
- GI50 (ACHN): 2800 nM
- GI50 (IGROV1): 2600 nM
- GI50 (HCT-15): 2500 nM
- GI50 (CAKI-1): 2900 nM
- GI50 (MOLT-4): 2900 nM
- GI50 (SNB-19): 3400 nM
- GI50 (CCRF-CEM): 2200 nM
- GI50 (NCI-H322M): 2800 nM
- GI50 (HOP-62): 1900 nM
- GI50 (RPMI-8226): 1500 nM
- GI50 (NCI/ADR-RES): 2500 nM
- GI50 (NCI-H23): 1800 nM
- GI50 (SK-OV-3): 2300 nM
- GI50 (A498): 2300 nM
- GI50 (M14): 2200 nM
- GI50 (UACC-257): 2200 nM
- GI50 (T-47D): 1800 nM
- GI50 (OVCAR-4): 3500 nM
- GI50 (786-0): 3400 nM
- GI50 (HL-60(TB)): 1600 nM
- GI50 (HS 578T): 2600 nM
